pEC50: −log10 of the molar value.
Tested on: recombinant NL4-3 virus (Renilla luciferase in nef, Gag P373S; NLRluc) in MT-2 cells
Assay: HIV cell culture assay (luciferase reporter virus in MT-2 cells)
Type: cell-based
Settings: NL43, read-out: WT EC50
Procedure: Step 2: To a solution of methyl 4-((1R,3aS,5aR,5bR,7aR,11aS,11bR,13aR,13bR)-5a,5b,8,8,11a-pentamethyl-3a-(1-methyl-1H-1,2,4-triazol-5-yl)-1-(prop-1-en-2-yl)-2,3,3a,4,5,5a,5b,6,7,7a,8,11,11a,11b,12,13,13a,13b-octadecahydro-1H-cyclopenta[a]chrysen-9-yl)benzoate (12.7 mg, 0.021 mmol) in THF (1 mL) and MeOH (0.25 mL) was added a solution of 1N lithium hydroxide (0.073 mL, 0.073 mmol). The reaction was stirred at 75° C. After 1 h, the reaction was cooled to rt and purified by reverse phase prep-HPLC using HPLC method 4 and dried in vacuo to give 4-((1R,3aS,5aR,5bR,7aR,11aS,11bR,13aR,13bR)-5a,5b,8,8,11a-pentamethyl-3a-(1-methyl-1H-1,2,4-triazol-5-yl)-1-(prop-1-en-2-yl)-2,3,3a,4,5,5a,5b,6,7,7a,8,11,11a,11b,12,13,13a,13b-octadecahydro-1H-cyclopenta[a]chrysen-9-yl)benzoic acid (9.1 mg, 0.015 mmol, 70.4% yield) as a white solid. LC/MS: m/e 596.3 (M+H)^+, 5.33 min (method 3). ^1H NMR (400 MHz, 1:1 CDCl3:METHANOL-d4) δ 7.89 (d, J=8.3 Hz, 2H), 7.78 (s, 1H), 7.17 (d, J=8.6 Hz, 2H), 5.30-5.22 (m, 1H), 4.77 (d, J=1.7 Hz, 1H), 3.93 (s, 3H), 3.23-3.05 (m, 2H), 2.33 (d, J=13.7 Hz, 1H), 2.11 (dd, J=17.2, 6.2 Hz, 1H), 2.04-1.96 (m, 1H), 1.93-1.80 (m, 2H), 1.72 (s, 3H), 1.68 (d, J=16.4 Hz, 1H), 1.63-1.58 (m, 1H), 1.55-1.30 (m, 10H), 1.28-1.19 (m, 2H), 1.18-1.08 (m, 2H), 1.04 (s, 3H), 0.97 (s, 3H), 0.90 (s, 6H), 0.82 (s, 3H). HIV cell culture assay—MT-2 cells and 293T cells were obtained from the NIH AIDS Research and Reference Reagent Program. MT-2 cells were propagated in RPMI 1640 media supplemented with 10% heat inactivated fetal bovine serum, […]. The 293T cells were propagated in DMEM media supplemented with 10% heat inactivated fetal bovine serum (FBS), 100 units/mL penicillin G and 100 μg/mL streptomycin. The proviral DNA clone of NL4-3 was obtained from the NIH AIDS Research and Reference Reagent Program. A recombinant NL4-3 virus, in which a section of the nef gene from NL4-3 was replaced with the Renilla luciferase gene, was used as a reference virus. In addition, residue Gag P373 was converted to P373S. Briefly, the recombinant virus was prepared by transfection of the altered proviral clone of NL4-3. Transfections were performed in 293T cells using LipofectAMINE PLUS from Invitrogen (Carlsbad, Calif.), according to manufacturer's instruction. The virus was titered in MT-2 cells using luciferase enzyme activity as a marker. Luciferase was quantitated using the Dual Luciferase kit from Promega (Madison, Wis.), with modifications to the manufacturer's protocol. The diluted Passive Lysis solution was pre-mixed with the re-suspended Luciferase Assay Reagent and the re-suspended Stop & Glo Substrate (2:1:1 ratio). Fifty (50) μL of the mixture was added to each aspirated well on assay plates and luciferase activity was measured immediately on a Wallac TriLux (Perkin-Elmer). Antiviral activities of inhibitors toward the recombinant virus were quantified by measuring luciferase activity in cells infected for 4-5 days with NLRluc recombinants in the presence serial dilutions of the inhibitor. Biological Data Key for EC50

C=C(C)[C@@H]1CC[C@]2(C#Cc3ccccc3C(=O)O)CC[C@]3(C)[C@H](CC[C@@H]4[C@@]5(C)CC=C(c6ccc(C(=O)O)cc6)C(C)(C)[C@@H]5CC[C@]43C)[C@@H]12 [Example 1, 2-(((1R,3aS,5aR,5bR,7aR,11aS,11bR,13aR,13bR)-9-(4-carboxyphenyl)-5a,5b,8,8,11a-pentamethyl-1-(prop-1-en-2-yl)-2,3,3a,4,5,5a,5b,6,7,7a,8,11,11a,11b,12,13,13a,13b-octadecahydro-1H-cyclopenta[a]chrysen-3a-yl)ethynyl)benzoic acid] was tested. Which pEC50 did it give?
The pEC50 was 7.10.

C=C(C)[C@@H]1CC[C@]2(C#Cc3ccsc3-c3nnn[nH]3)CC[C@]3(C)[C@H](CC[C@@H]4[C@@]5(C)CC=C(c6ccc(C(=O)O)cc6)C(C)(C)[C@@H]5CC[C@]43C)[C@@H]12 [Example 2, 4-((1R,3aS,5aR,5bR,7aR,11aS,11bR,13 aR,13bR)-3a-((2-(1H-tetrazol-5-yl)thiophen-3-yl)ethynyl)-5a,5b,8,8,11a-pentamethyl-1-(prop-1-en-2-yl)-2,3,3a,4,5,5a,5b,6,7,7a,8,11,11a,11b,12,13,13a,13b-octadecahydro-1H-cyclopenta[a]chrysen-9-yl)benzoic acid] was tested. Which pEC50 did it give?
Its pEC50 is < 7.00.

C=C(C)[C@@H]1CC[C@]2(c3nnco3)CC[C@]3(C)[C@H](CC[C@@H]4[C@@]5(C)CC=C(c6ccc(C(=O)O)cc6)C(C)(C)[C@@H]5CC[C@]43C)[C@@H]12 [Example 3, 4-((1R,3aS,5aR,5bR,7aR,11aS,11bR,13aR,13bR)-5a,5b,8,8,11a-pentamethyl-3a-(1,3,4-oxadiazol-2-yl)-1-(prop-1-en-2-yl)-2,3,3a,4,5,5a,5b,6,7,7a,8,11,11a,11b,12,13,13a,13b-octadecahydro-1H-cyclopenta[a]chrysen-9-yl)benzoic acid] was tested. Which pEC50 did it give?
Its pEC50 is > 7.00.

C=C(C)[C@@H]1CC[C@]2(c3nnc(CN(C)C)o3)CC[C@]3(C)[C@H](CC[C@@H]4[C@@]5(C)CC=C(c6ccc(C(=O)O)cc6)C(C)(C)[C@@H]5CC[C@]43C)[C@@H]12 [Example 4, 4-((1R,3aS,5aR,5bR,7aR,11aS,11bR,13 aR,13bR)-3a-(5-((dimethylamino)methyl)-1,3,4-oxadiazol-2-yl)-5a,5b,8,8,11a-pentamethyl-1-(prop-1-en-2-yl)-2,3,3a,4,5,5a,5b,6,7,7a,8,11,11a,11b,12,13,13a,13b-octadecahydro-1H-cyclopenta[a]chrysen-9-yl)benzoic acid] was tested. Which pEC50 did it give?
Its pEC50 is > 7.00.

How did the pEC50 turn out when C=C(C)[C@@H]1CC[C@]2(c3nc[nH]n3)CC[C@]3(C)[C@H](CC[C@@H]4[C@@]5(C)CC=C(c6ccc(C(=O)O)cc6)C(C)(C)[C@@H]5CC[C@]43C)[C@@H]12 [Example 5, 4-((1R,3aS,5aR,5bR,7aR,11aS,11bR,13aR,13bR)-5a,5b,8,8,11a-pentamethyl-1-(prop-1-en-2-yl)-3a-(1H-1,2,4-triazol-3-yl)-2,3,3a,4,5,5a,5b,6,7,7a,8,11,11a,11b,12,13,13a,13b-octadecahydro-1H-cyclopenta[a]chrysen-9-yl)benzoic acid] was run?
The pEC50 was > 7.00.

How did the pEC50 turn out when C=C(C)[C@@H]1CC[C@]2(c3ncn(CCN4CCS(=O)(=O)CC4)n3)CC[C@]3(C)[C@H](CC[C@@H]4[C@@]5(C)CC=C(c6ccc(C(=O)O)cc6)C(C)(C)[C@@H]5CC[C@]43C)[C@@H]12 [Example 6, 4-((1R,3aS,5aR,5bR,7aR,11aS,11bR,13aR,13bR)-3a-(1-(2-(1,1-dioxidothiomorpholino)ethyl)-1H-1,2,4-triazol-3-yl)-5a,5b,8,8,11a-pentamethyl-1-(prop-1-en-2-yl)-2,3,3a,4,5,5a,5b,6,7,7a,8,11,11a,11b,12,13,13a,13b-octadecahydro-1H-cyclopenta[a]chrysen-9-yl)benzoic acid] was run?
The pEC50 was > 7.00.

With C=C(C)[C@@H]1CC[C@]2(c3ncnn3C)CC[C@]3(C)[C@H](CC[C@@H]4[C@@]5(C)CC=C(c6ccc(C(=O)O)cc6)C(C)(C)[C@@H]5CC[C@]43C)[C@@H]12 [Example 7, 4-((1R,3aS,5aR,5bR,7aR,11aS,11bR,13aR,13bR)-5a,5b,8,8,11a-pentamethyl-3a-(1-methyl-1H-1,2,4-triazol-5-yl)-1-(prop-1-en-2-yl)-2,3,3a,4,5,5a,5b,6,7,7a,8,11,11a,11b,12,13,13a,13b-octadecahydro-1H-cyclopenta[a]chrysen-9-yl)benzoic acid] as the compound, how does the pEC50 read?
Its pEC50 is > 7.00.

From patent US10047118B2, “C17-aryl substituted betulinic acid analogs” (priority 2014, dated 2018)
